Laboratory results as given in paper PMC8989888, “Development of optimized drug-like small molecule inhibitors of the SARS-CoV-2 3CL protease for treatment of COVID-19” (Nature Communications, 2022).
Like-named read-outs stand apart in the source and are kept apart here.

Molecular target: SARS-CoV-2 3CL protease (Severe acute respiratory syndrome coronavirus 2, UniProt P0DTD1)
Type: biochemical
Parameters: Avg: unit not given here
Conditions: for Inhibition at 10 µM: 10 µM compound; for Inhibition at 100 µM: 100 µM compound; for IC50 / LogIC50: Figure S1 and S2
[1] = Conc 10 µM, mean response (inhibition) of dose-response curve
[2] = Conc 15 µM, mean response (inhibition) of dose-response curve
[3] = Conc 20 µM, mean response (inhibition) of dose-response curve
[4] = Conc 50 µM, mean response (inhibition) of dose-response curve
[5] = Conc 100 µM, mean response (inhibition) of dose-response curve
[6] = Conc 200 µM, mean response (inhibition) of dose-response curve
[7] = dose-response curve of fragment hit
[8] = log of IC50 (µM), dose-response curve fit
[9] = Conc 10 µM, average response of dose-response curve
[10] = Conc 15 µM, average response of dose-response curve
[11] = Conc 20 µM, average response of dose-response curve
[12] = Conc 50 µM, average response of dose-response curve
[13] = Conc 100 µM, average response of dose-response curve
[14] = Conc 200 µM, average response of dose-response curve
[15] = dose-response retest of fragment hits

Row | SMILES | Inhibition at 10 µM [%] | Inhibition at 100 µM [%] | Avg [1] | Avg [2] | Avg [3] | Avg [4] | Avg [5] | Avg [6] | IC50 [7] [µM] | LogIC50 (log10 of IC50 in µM) | also measured
1 | Cc1cc(C(=O)CCl)c(C)n1-c1nccs1 [Z56979277] | 64 | 100 | 63.6 | 80.9 | 90.9 | 95.6 | 101.9 | 108.5 | – | – | –
2 | Cc1cc(C(=O)CCl)c(C)n1-c1ncn[nH]1 [Z57014347] | 35 | 100 | 35.1 | 51.1 | 60.8 | 75.5 | 101.2 | 107.2 | 15.4 | 1.188 | –
3 | CN(c1ccc(C(=O)CCl)cc1)S(C)(=O)=O [Z57982062] | 47 | 94 | 47.1 | 48.1 | 62 | 79.8 | 93.6 | 99.3 | 13.5 | 1.131 | –
4 | CCN(c1ccc(C(=O)CCl)cc1)S(C)(=O)=O [Z85932823] | 25 | 84 | 25.1 | 25.8 | 34.6 | 58.2 | 84.1 | 87.1 | 39.7 | 1.598 | –
5 | CC1C(=O)Nc2ccc(C(=O)CCl)cc21 (stereo not drawn) [Z94598687] | 3 | 85 | 3 | 12.3 | 39.4 | 61.2 | 84.9 | 105.3 | 33.9 | 1.53 | –
6 | O=C(CCl)NC(=O)OCc1ccccc1 [Z108566700] | 22 | 100 | – | – | – | – | – | – | – | – | Avg (Conc 10 µM): 22.2; Avg (Conc 15 µM): 41.7; Avg (Conc 20 µM): 51.1; Avg (Conc 50 µM): 86.4; Avg (Conc 100 µM): 100.3; Avg (Conc 200 µM): 108.1; IC50 (dose-response curve fit): 19 µM; LogIC50 [8]: 1.279
7 | Cc1cc(C(=O)CCl)c(C)n1-c1ccccn1 [Z126674012] | 36 | 91 | – | – | – | – | – | – | – | – | Avg (Conc 10 µM): 35.8; Avg (Conc 15 µM): 45.3; Avg (Conc 20 µM): 61.2; Avg (Conc 50 µM): 80.4; Avg (Conc 100 µM): 91.2; Avg (Conc 200 µM): 99.9; IC50 (dose-response curve fit): 15.8 µM; LogIC50 [8]: 1.197
8 | O=C(CCl)N1CCN(Cc2cccs2)CC1 [Z166605372] | 3 | 70 | – | – | – | – | – | – | – | – | Avg [9]: 3.4; Avg [10]: 11.2; Avg [11]: 27.4; Avg [12]: 53.6; Avg [13]: 69.5; Avg [14]: 93; IC50 [15]: 47.5 µM; LogIC50 (log of IC50 in µM): 1.677
9 | Cc1ccccc1CN1CCN(C(=O)CCl)CC1 [Z208155076] | 18 | 85 | – | – | – | – | – | – | – | – | Avg [9]: 18.2; Avg [10]: 5.8; Avg [11]: 36.6; Avg [12]: 64.8; Avg [13]: 84.6; Avg [14]: 98.1; IC50 [15]: 35.8 µM; LogIC50 (log of IC50 in µM): 1.554
10 | O=C(CCl)c1ccc(N2CCCC2=O)cc1 [Z221603842] | 47 | 87 | – | – | – | – | – | – | – | – | Avg [9]: 46.5; Avg [10]: 48.2; Avg [11]: 62.2; Avg [12]: 77.1; Avg [13]: 86.9; Avg [14]: 83.1; IC50 [15]: 14 µM; LogIC50 (log of IC50 in µM): 1.147
11 | NS(=O)(=O)c1ccc(S)nc1 [Z235344787] | 6 | 100 | – | – | – | – | – | – | – | – | Avg [9]: 5.7; Avg [10]: 20.7; Avg [11]: 38.6; Avg [12]: 106.4; Avg [13]: 110.1; Avg [14]: 111.3; IC50 [15]: 22.3 µM; LogIC50 (log of IC50 in µM): 1.348
12 | O=C(NCCc1ccc(F)cc1)n1ccnc1 [Z235353843] | 30 | 96 | – | – | – | – | – | – | – | – | Avg [9]: 29.9; Avg [10]: 15.5; Avg [11]: 42.1; Avg [12]: 82.2; Avg [13]: 95.9; Avg [14]: 102.1; IC50 [15]: 27.6 µM; LogIC50 (log of IC50 in µM): 1.441
13 | O=C(c1ccc(S)nc1)N1CCCC1 [Z235362941] | 0 | 100 | – | – | – | – | – | – | – | – | Avg [9]: 0.4; Avg [10]: 23.9; Avg [11]: 31.4; Avg [12]: 102.7; Avg [13]: 108.6; Avg [14]: 116.6; IC50 [15]: 23.9 µM; LogIC50 (log of IC50 in µM): 1.378
14 | Cc1ccc(CNC(=O)n2ccnc2)cc1 [Z295462498] | 21 | 100 | 21 | 37.9 | 33.6 | 84.1 | 101.3 | 104 | 26.7 | 1.426 | –
15 | N#Cc1ccc(S)nc1 [Z367678594] | 16 | 100 | 16.1 | 29.5 | 30.5 | 107.9 | 110.6 | 113.2 | 25 | 1.398 | –
16 | O=C(CCl)N1CCc2[nH]c3ccccc3c2C1 [Z398556976] | 43 | 100 | 42.8 | 70.8 | 74.6 | 93.9 | 100.2 | 98.1 | 11 | 1.042 | –
17 | CSc1cc(C(=O)CCl)ccc1NC(C)=O [Z449369022] | – | 95 | 12.5 | 32 | 31 | 67.6 | 95.3 | 107.3 | 31 | 1.491 | –
18 | NC(=O)c1csc(C(=O)CCl)c1 [Z802671642] | 16 | 80 | 15.9 | 29.5 | 35.2 | 47.6 | 80.1 | 92.5 | 42.6 | 1.6293 | –
19 | NC(=O)CCc1ccc(C(=O)CCl)cc1 [Z1203664423] | 22 | 88 | – | – | – | – | – | – | – | – | Avg (Conc 10 µM): 21.6; Avg (Conc 15 µM): 41.7; Avg (Conc 20 µM): 49.5; Avg (Conc 50 µM): 69.9; Avg (Conc 100 µM): 88.3; Avg (Conc 200 µM): 103.3; IC50 (dose-response curve fit): 22 µM; LogIC50 [8]: 1.341
20 | O=C(NCC1CCCCC1O)c1cccnc1S (stereo not drawn) [Z1252265470] | 0 | 100 | – | – | – | – | – | – | – | – | Avg (Conc 10 µM): -0.7; Avg (Conc 15 µM): 22.4; Avg (Conc 20 µM): 33.5; Avg (Conc 50 µM): 82; Avg (Conc 100 µM): 99.6; Avg (Conc 200 µM): 99.1; IC50 (dose-response curve fit): 25.5 µM; LogIC50 [8]: 1.406
21 | COC(C)(C)CNC(=O)c1cccnc1S [Z1274680193] | 27 | 80 | – | – | – | – | – | – | – | – | Avg (Conc 10 µM): 27.3; Avg (Conc 15 µM): 54.6; Avg (Conc 20 µM): 67.5; Avg (Conc 50 µM): 90.4; Avg (Conc 100 µM): 80.1; Avg (Conc 200 µM): 60.9; IC50 (dose-response curve fit): 14.2 µM; LogIC50 [8]: 1.153
